# Measured values: the NIST ThermoML archive (doi:10.1016/j.jct.2019.03.007)
# ± gives the expanded uncertainty stated by the source.
# Assay: molar heat capacity at constant pressure
# Settings: 101.33 kPa, Crystal 1, DSC
smiles,measurement,setting,value
O=[N+]([O-])[O-].O=[N+]([O-])[O-].[Ca+2] [calcium nitrate],molar heat capacity at constant pressure,361.78 K,152.56 ± 11 J/K/mol
same,molar heat capacity at constant pressure,362.18 K,160.28 ± 11 J/K/mol
same,molar heat capacity at constant pressure,362.78 K,152.75 ± 11 J/K/mol
same,molar heat capacity at constant pressure,363.18 K,160.44 ± 11 J/K/mol
same,molar heat capacity at constant pressure,363.78 K,152.95 ± 11 J/K/mol
same,molar heat capacity at constant pressure,364.18 K,160.63 ± 11 J/K/mol
same,molar heat capacity at constant pressure,364.78 K,153.15 ± 11 J/K/mol
same,molar heat capacity at constant pressure,365.18 K,160.81 ± 11 J/K/mol
same,molar heat capacity at constant pressure,365.78 K,153.35 ± 11 J/K/mol
same,molar heat capacity at constant pressure,366.18 K,161.02 ± 11 J/K/mol
same,molar heat capacity at constant pressure,366.78 K,153.54 ± 11 J/K/mol
same,molar heat capacity at constant pressure,367.18 K,161.17 ± 11 J/K/mol
same,molar heat capacity at constant pressure,367.78 K,153.74 ± 11 J/K/mol
same,molar heat capacity at constant pressure,368.18 K,161.33 ± 11 J/K/mol
same,molar heat capacity at constant pressure,368.78 K,153.94 ± 11 J/K/mol
same,molar heat capacity at constant pressure,369.18 K,161.53 ± 11 J/K/mol
same,molar heat capacity at constant pressure,369.78 K,154.14 ± 11 J/K/mol
same,molar heat capacity at constant pressure,370.18 K,161.7 ± 11 J/K/mol
same,molar heat capacity at constant pressure,370.78 K,154.34 ± 11 J/K/mol
same,molar heat capacity at constant pressure,371.18 K,161.95 ± 11 J/K/mol
same,molar heat capacity at constant pressure,371.78 K,154.54 ± 11 J/K/mol
same,molar heat capacity at constant pressure,372.18 K,162.09 ± 11 J/K/mol
same,molar heat capacity at constant pressure,372.78 K,154.75 ± 11 J/K/mol
same,molar heat capacity at constant pressure,373.18 K,162.29 ± 11 J/K/mol
same,molar heat capacity at constant pressure,373.78 K,154.94 ± 11 J/K/mol
same,molar heat capacity at constant pressure,374.18 K,162.35 ± 11 J/K/mol
same,molar heat capacity at constant pressure,374.78 K,155.12 ± 11 J/K/mol
same,molar heat capacity at constant pressure,375.18 K,162.54 ± 11 J/K/mol
same,molar heat capacity at constant pressure,375.78 K,155.3 ± 11 J/K/mol
same,molar heat capacity at constant pressure,376.18 K,162.75 ± 11 J/K/mol
same,molar heat capacity at constant pressure,376.78 K,155.47 ± 11 J/K/mol
same,molar heat capacity at constant pressure,377.18 K,162.97 ± 11 J/K/mol
same,molar heat capacity at constant pressure,377.78 K,155.64 ± 11 J/K/mol
same,molar heat capacity at constant pressure,378.18 K,163.18 ± 11 J/K/mol
same,molar heat capacity at constant pressure,378.78 K,155.81 ± 11 J/K/mol
same,molar heat capacity at constant pressure,379.18 K,163.4 ± 11 J/K/mol
same,molar heat capacity at constant pressure,379.78 K,155.97 ± 11 J/K/mol
same,molar heat capacity at constant pressure,380.18 K,163.62 ± 11 J/K/mol
same,molar heat capacity at constant pressure,380.78 K,156.14 ± 11 J/K/mol
same,molar heat capacity at constant pressure,381.18 K,163.84 ± 11 J/K/mol
same,molar heat capacity at constant pressure,381.78 K,156.31 ± 11 J/K/mol
same,molar heat capacity at constant pressure,382.18 K,164.05 ± 11 J/K/mol
same,molar heat capacity at constant pressure,382.78 K,156.48 ± 11 J/K/mol
same,molar heat capacity at constant pressure,383.18 K,164.32 ± 11 J/K/mol
same,molar heat capacity at constant pressure,383.78 K,156.65 ± 11 J/K/mol
same,molar heat capacity at constant pressure,384.18 K,164.57 ± 11 J/K/mol
same,molar heat capacity at constant pressure,384.78 K,156.82 ± 11 J/K/mol
same,molar heat capacity at constant pressure,385.18 K,164.8 ± 12 J/K/mol
same,molar heat capacity at constant pressure,385.78 K,156.99 ± 11 J/K/mol
same,molar heat capacity at constant pressure,386.18 K,164.98 ± 12 J/K/mol
same,molar heat capacity at constant pressure,386.78 K,157.16 ± 11 J/K/mol
same,molar heat capacity at constant pressure,387.18 K,165.18 ± 12 J/K/mol
same,molar heat capacity at constant pressure,387.78 K,157.33 ± 11 J/K/mol
same,molar heat capacity at constant pressure,388.18 K,165.31 ± 12 J/K/mol
same,molar heat capacity at constant pressure,388.78 K,157.5 ± 11 J/K/mol
same,molar heat capacity at constant pressure,389.18 K,165.47 ± 12 J/K/mol
same,molar heat capacity at constant pressure,389.78 K,157.67 ± 11 J/K/mol
same,molar heat capacity at constant pressure,390.18 K,165.67 ± 12 J/K/mol
same,molar heat capacity at constant pressure,390.78 K,157.83 ± 11 J/K/mol
same,molar heat capacity at constant pressure,391.18 K,165.88 ± 12 J/K/mol
same,molar heat capacity at constant pressure,391.78 K,158 ± 11 J/K/mol
same,molar heat capacity at constant pressure,392.18 K,166.07 ± 12 J/K/mol
same,molar heat capacity at constant pressure,392.78 K,158.17 ± 11 J/K/mol
same,molar heat capacity at constant pressure,393.18 K,166.27 ± 12 J/K/mol
same,molar heat capacity at constant pressure,393.78 K,158.34 ± 11 J/K/mol
same,molar heat capacity at constant pressure,394.18 K,166.46 ± 12 J/K/mol
same,molar heat capacity at constant pressure,394.78 K,158.51 ± 11 J/K/mol
same,molar heat capacity at constant pressure,395.18 K,166.6 ± 12 J/K/mol
same,molar heat capacity at constant pressure,395.78 K,158.68 ± 11 J/K/mol
same,molar heat capacity at constant pressure,396.18 K,166.74 ± 12 J/K/mol
same,molar heat capacity at constant pressure,396.78 K,158.86 ± 11 J/K/mol
same,molar heat capacity at constant pressure,397.18 K,166.86 ± 12 J/K/mol
same,molar heat capacity at constant pressure,397.78 K,159.03 ± 11 J/K/mol
same,molar heat capacity at constant pressure,398.18 K,167.03 ± 12 J/K/mol
same,molar heat capacity at constant pressure,398.78 K,159.2 ± 11 J/K/mol
same,molar heat capacity at constant pressure,399.18 K,167.15 ± 12 J/K/mol
same,molar heat capacity at constant pressure,399.78 K,159.38 ± 11 J/K/mol
same,molar heat capacity at constant pressure,400.18 K,167.33 ± 12 J/K/mol
same,molar heat capacity at constant pressure,400.78 K,159.54 ± 11 J/K/mol
same,molar heat capacity at constant pressure,401.18 K,167.43 ± 12 J/K/mol
same,molar heat capacity at constant pressure,401.78 K,159.71 ± 11 J/K/mol
same,molar heat capacity at constant pressure,402.18 K,167.63 ± 12 J/K/mol
same,molar heat capacity at constant pressure,402.78 K,159.87 ± 11 J/K/mol
same,molar heat capacity at constant pressure,403 K,160.69 ± 11 J/K/mol
same,molar heat capacity at constant pressure,403.18 K,167.77 ± 12 J/K/mol
same,molar heat capacity at constant pressure,403.78 K,160.04 ± 11 J/K/mol
same,molar heat capacity at constant pressure,404 K,160.78 ± 11 J/K/mol
same,molar heat capacity at constant pressure,404.18 K,167.98 ± 12 J/K/mol
same,molar heat capacity at constant pressure,404.78 K,160.23 ± 11 J/K/mol
same,molar heat capacity at constant pressure,405 K,161.04 ± 11 J/K/mol
same,molar heat capacity at constant pressure,405.18 K,168.21 ± 12 J/K/mol
same,molar heat capacity at constant pressure,405.78 K,160.41 ± 11 J/K/mol
same,molar heat capacity at constant pressure,406 K,160.25 ± 11 J/K/mol
same,molar heat capacity at constant pressure,406.18 K,168.41 ± 12 J/K/mol
same,molar heat capacity at constant pressure,406.78 K,160.58 ± 11 J/K/mol
same,molar heat capacity at constant pressure,407 K,160.32 ± 11 J/K/mol
same,molar heat capacity at constant pressure,407.18 K,168.63 ± 12 J/K/mol
same,molar heat capacity at constant pressure,407.78 K,160.76 ± 11 J/K/mol
same,molar heat capacity at constant pressure,408 K,160.3 ± 11 J/K/mol
same,molar heat capacity at constant pressure,408.18 K,168.88 ± 12 J/K/mol
same,molar heat capacity at constant pressure,408.78 K,160.93 ± 11 J/K/mol
same,molar heat capacity at constant pressure,409 K,160.49 ± 11 J/K/mol
same,molar heat capacity at constant pressure,409.18 K,169.09 ± 12 J/K/mol
same,molar heat capacity at constant pressure,409.78 K,161.1 ± 11 J/K/mol
same,molar heat capacity at constant pressure,410 K,161.08 ± 11 J/K/mol
same,molar heat capacity at constant pressure,410.18 K,169.35 ± 12 J/K/mol
same,molar heat capacity at constant pressure,410.78 K,161.27 ± 11 J/K/mol
same,molar heat capacity at constant pressure,411 K,160.76 ± 11 J/K/mol
same,molar heat capacity at constant pressure,411.18 K,169.49 ± 12 J/K/mol
same,molar heat capacity at constant pressure,411.78 K,161.44 ± 11 J/K/mol
same,molar heat capacity at constant pressure,412 K,160.92 ± 11 J/K/mol
same,molar heat capacity at constant pressure,412.18 K,169.72 ± 12 J/K/mol
same,molar heat capacity at constant pressure,412.78 K,161.61 ± 11 J/K/mol
same,molar heat capacity at constant pressure,413 K,161.04 ± 11 J/K/mol
same,molar heat capacity at constant pressure,413.18 K,169.84 ± 12 J/K/mol
same,molar heat capacity at constant pressure,413.78 K,161.77 ± 11 J/K/mol
same,molar heat capacity at constant pressure,414 K,161.26 ± 11 J/K/mol
same,molar heat capacity at constant pressure,414.18 K,170.06 ± 12 J/K/mol
same,molar heat capacity at constant pressure,414.78 K,161.94 ± 11 J/K/mol
same,molar heat capacity at constant pressure,415 K,161.41 ± 11 J/K/mol
same,molar heat capacity at constant pressure,415.18 K,170.21 ± 12 J/K/mol
same,molar heat capacity at constant pressure,415.78 K,162.11 ± 11 J/K/mol
same,molar heat capacity at constant pressure,416 K,161.42 ± 11 J/K/mol
same,molar heat capacity at constant pressure,416.18 K,170.45 ± 12 J/K/mol
same,molar heat capacity at constant pressure,416.78 K,162.27 ± 11 J/K/mol
same,molar heat capacity at constant pressure,417 K,161.52 ± 11 J/K/mol
same,molar heat capacity at constant pressure,417.18 K,170.58 ± 12 J/K/mol
same,molar heat capacity at constant pressure,417.78 K,162.43 ± 11 J/K/mol
